Test results as given in patent US20160018400A1, “DIAGNOSTIC AND PROGNOSTIC BIOMARKERS FOR PROSTATE CANCER AND OTHER DISORDERS” (CANCER RESEARCH TECHNOLOGY LIMITED, priority 2013, published 2016).

Assays:
VPS13A = VPS13A protein expression in LNCaP cells after calcium modifiers (SDS-PAGE / western blot); assay type: cell-based; conditions: LNCaP cells treated for 8 hours with 10 μM; lysates probed for VPS13A and tubulin
Procedure: Non-targeting control LNCaP cells or siVPS13A cells were treated for 8 hours with 10 μM BAPTA (B), calcimycin (Cal) or control (C). Protein lysates were separated by SDS-PAGE and probed for VPS13A and tubulin.
Cells were fixed and stained as before using anti-VPS13A antibody (1:50, Human Protein Atlas) and LAMP2 antibody (1:500, BD Biosciences) (8). Cells were imaged using Alexafluor 594 and 488 secondary antibodies (Molecular Probes) and mounted with DAPI. All images were obtained using a Nikon Eclipse confocal microscope using a 100× objective. For calcium modifying experiments, LNCaP cells were grown as before to ˜50% confluence before being treated for 8 hours with 10 μM of the calcium ionophore, calcimycin (Invitrogen) or 10 μM of the calcium chelating agent 1,2-bis(o-aminophenoxy)ethane-N,N,N′,N′-tetraacetic acid (BAPTA) (Invitrogen) (Whitaker et al., 2007).
Protein lysates were produced as described (8) and separated by SDS-PAGE before blotting for VPS13A (1:1000, Human Protein Atlas), FAK (1:1000, Cell Signaling Technology), pTyr397-FAK (1:1000, Cell Signaling Technology) or tubulin (1:2000, Abcam).

LNCaP cells = experiment: Confocal microscopy of VPS13A vesicle association/fusion with LAMP2-positive lysosomes; assay type: cell-based
Procedure: FIG. […] The cells were then fixed and stained for LAMP2 and VPS13A. Using the 100× lens, the number of lysosomes in 10 fields of view were counted. Then the number of VPS13A fusion events was counted in the same field of view. A fusion event was classed as a VPS13A vesicle touching or integrated into a LAMP2 positive lysosome. *Data are shown normalised to the number of lysosomes in each field of view. P-values were calculated using a Mann-Whitney 2-tailed t-test.
Cells were fixed and stained as before using anti-VPS13A antibody (1:50, Human Protein Atlas) and LAMP2 antibody (1:500, BD Biosciences) (8). Cells were imaged using Alexafluor 594 and 488 secondary antibodies (Molecular Probes) and mounted with DAPI. All images were obtained using a Nikon Eclipse confocal microscope using a 100× objective. […]

| SMILES | intracellular levels of VPS13A (VPS13A protein expression) (VPS13A) | VPS13A vesicle integration into the lysosome membrane (LNCaP cells; cells treated with bafilomycin, LAMP2 staining) | number of VPS13A vesicles that associated with lysosomes (fusion events, normalised to number of lysosomes) (LNCaP cells; LNCaP cells, LAMP2 and VPS13A staining, p=0.0004) |
| --- | --- | --- | --- |
| O=C(O)CN(CC(=O)O)c1ccccc1OCCOc1ccccc1N(CC(=O)O)CC(=O)O [BAPTA, 1,2-bis(o-aminophenoxy)ethane-N,N,N′,N′-tetraacetic acid] | no significant change in VPS13A expression | – | – |
| CO/C1=C\C(C)=C\[C@@H](C)[C@@H](O)[C@@H](C)C/C(C)=C/C=C/[C@H](OC)[C@@H]([C@@H](C)[C@@H](O)[C@H](C)[C@@]2(O)C[C@@H](O)[C@H](C)[C@@H](C(C)C)O2)OC1=O [bafilomycin] | – | VPS13A vesicles are seen integrated into the lysosome membrane | – |
| CNc1ccc2oc(C[C@H]3O[C@@]4(CC[C@H]3C)O[C@H]([C@H](C)C(=O)c3ccc[nH]3)[C@H](C)C[C@H]4C)nc2c1C(=O)O [calcimycin] | increase in the intracellular levels of VPS13A | – | highly significant decrease |
